{"source": "patent US11826373B2", "about": "“Methods for treatment of diseases” (Galera Labs, LLC, priority 2011, dated 2023)", "system": "Rats", "experiment": "Rat GC4419 7-day IV study", "assay_type": "in vivo", "method": "A GLP toxicity study with GC4419 in bicarbonate buffer was performed. Rats (5/sex/group) were administered GC4419 as a 15 minute IV injection (4 mL/kg) at 0, 5, 10 or 15 mg/kg for 7 consecutive days. The control group received bicarbonate buffer. Evaluations for compound-related effects were based on clinical observations, body weight and food consumption. There were no deaths during the study and there were no signs of significant compound effects at any dosage.", "data": [{"molecule": "[Cl][Mn-5]1234([Cl])[n+]5c6cccc5C[NH+]1[C@H]1CCCC[C@@H]1[NH+]2CC[NH+]3[C@H]1CCCC[C@@H]1[NH+]4C6", "note": "(stereo partly drawn) [GC4419]", "values": [{"measurement": "decrease in body weight", "setting": "males given 15 mg/kg/day, by Day 8", "result": "approximately 10%"}, {"measurement": "mortality", "setting": "rats, 5, 10 or 15 mg/kg, 7 days", "result": "no deaths"}, {"measurement": "NOTEL", "setting": "rats, males and females, 15 minute IV injection, 7 consecutive days", "result": 15, "unit": "mg/kg"}]}]}
